Assays:
[1] = tested on: metacholine-induced airway-constriction; test: Effect on the airways constriction in guinea pigs (Konzett-Rossler method); type: in vivo; conditions: Hartley male guinea pigs, intratracheal application, metacholine 10 μg/kg i.v.; minimum dose suppressing not less than 80% within 60 min
Description: The present experiment was carried out with Hartley male guinea pigs (supplied by Nippon SLC Co.) as divided into groups each consisting of 3 to 4 animals. The guinea pigs were anesthetized with pentobarbital sodium (60 mg/kg, given intraperitoneally), and were subjected individually to insertion of a cannula into the airways. Each airway cannula was connected with a volume-controlled respirator (Model SN-480-N, manufactured by Shinano Seisakusho Co.) to perform artificial respiration at a ventilation volume of 5 mL and at a ventilation rate of ca. 70/min. For the purpose of application of metacholine, a catheter was inserted into the carotid vein. […] Prior to application of the test substance, and from 5 to 60 min. thereafter, respectively, metacholine was applied intravenously (10 μg/kg) to induce the airway-constriction, and the pressure at which air was passed through the airways, or the air-passage pressure through the airways, was measured with use of the Konzett-Rossler method. The airways-constriction ratio was taken as a proportion, expressed in percentage, of the air-passage pressure through the airways measured after individual application of the test substance to the maximum air-passage pressure through the airways found when the airways were completely clogged and occluded. […]

[2] = tested on: metacholine-induced bladder constriction; test: Effects on the bladder constriction in guinea pigs; type: in vivo; conditions: Hartley male guinea pigs, intratracheal application, metacholine 10 μg/kg i.v.; maximum dose suppressing less than 20% at all points within 60 min
Description: The present experiment was carried out with Hartley male guinea pigs (supplied by Nippon SLC Co.) as divided into groups each consisting of 3 to 4 animals. The guinea pigs were anesthetized with a urethane ([…], given subcutaneously), and were subjected individually to insertion of a catheter into the carotid vein in order to apply metacholine. […] All the ureters were ligated in order to prevent the urine from flowing into the bladder from the kidney. The internal pressure of the bladder was measured by means of a pressure transducer, whereby the bladder was filled with physiological saline to such an extent as might exert lower pressure than the urination threshold pressure against the inner wall. […] Prior to application of the test substance, and from 5 to 60 min. thereafter, respectively, metacholine was applied intravenously (10 μg/kg) to induce the bladder constriction, and the internal pressure of the bladder was measured in a time-course manner. The bladder-constriction ratio was taken as the proportion of the internal pressure of the bladder measured after application of the test substance to the internal pressure of the bladder before application of the test substance. […]

| SMILES | effective dose for the airway-constriction suppression [1] [µg/kg] | no-effective dose for the bladder constriction [2] [µg/kg] |
| --- | --- | --- |
| CCOC(=O)COc1cccc(C[N@+]2(C)[C@@H]3CC[C@H]2C[C@@H](OC(=O)C(O)(c2cccs2)c2cccs2)C3)c1.[Br-] [Example 14 (4), (1R,3r,5S,8s)-8-[3-(2-Ethoxy-2-oxoethoxy)benzyl]-3-({hydroxy[di(2-thienyl)]acetyl}oxy)-8-methyl-8-azoniabicyclo[3.2.1]octane bromide] | 3 | 30 |
| C[N+]1(C)[C@@H]2C[C@@H](OC(=O)C(O)(c3cccs3)c3cccs3)C[C@H]1[C@@H]1O[C@@H]12 [tiotropium] | 10 | 1 |
